What was measured:
[1] = tested on: I/R induced arrhythmias in mouse heart; experiment: Heart rhythm analysis (ECG) during reperfusion, I/R induced arrhythmia; type: in vivo, C57B1/6J mice; details: 0.4 mg/kg IV 5 min before reperfusion; vehicle 14.9±4.5; not significantly different
Method: During reperfusion we continuously recorded ECGs, from which mean heart rate, PR, QRS, and QT intervals were derived for each animal. We evaluated the incidence of arrhythmias by counting the incidences of arrhythmias including ventricular and supraventricular premature beats by summing the number of episodes based on limb lead recordings for 15 min after reperfusion. Ventricular premature beats are considered more severe. Each group contained 5 to 7 independent experiments (vehicle n=7, verapamil n=6, GsMTx4-D 0.1mg/kg n=5, 1 mg/kg n=6 and 10 mg/kg n=5).
Heart rate and rhythm were monitored by ECG to confirm the hallmark ischemic ST-segment elevation during coronary occlusion, and the gradually increasing inversion of the T-wave during reperfusion (FIG. 4A). Since generation of arrhythmias is a good indicator of the level of I/R damage, we counted ventricular and supraventricular premature beats occurring within 15 min of reperfusion (FIG. 4B). No ventricular tachycardia was observed during 20 min ischemia and 15 min reperfusion in the mouse heart. […] Considering that ventricular premature beats are indicative of more severe damage, the incidence of this specific arrhythmia was analyzed separately (FIG. 4 D). […] There was no difference in mean heart rate before ischemia (FIG. 4E). […] There was no difference in PR, QRS or QT intervals after treatment in all groups (data not shown).

[2] = tested on: ischemic reperfusion injury in mouse heart; type: in vivo, C57B1/6J mice; details: 0.4 mg/kg tail vein 5 min before reperfusion; 4 h reperfusion; vehicle 16.5±1.2%; not statistically significant
Method: Acute GsMTx4-D treatment: All animal protocols in this study were approved by the Institutional Animal Care and Use Committee of the University at Buffalo-State University of New York. C57B1/6J mice were anesthetized with 80 mg/kg of sodium pentobarbital (Sigma, St. Louis, Mo.) via intraperitoneal injection (IP), intubated and ventilated with a respirator (Harvard apparatus, Holliston, Mass., USA) 17. Upon absence of a pedal reflex, surgery was performed under a stereomicroscope. Core body temperature was maintained at 37° C. with a heating pad. After a left lateral thoracotomy, the left anterior descending coronary artery (LAD) was occluded just underneath the left atrium for 20 min with an 8-0 nylon suture. […] A small piece of gauze was used to prevent arterial injury. After 20 min the ligature was removed and the tissue was reperfused for up to 4 h before euthanizing. Three different doses of GsMTx4-D (0.1, 1, 10 mg/kg), verapamil (0.4 mg/kg) or vehicle (saline 50 μL) were administered via tail vein injection 5 min before reperfusion (during induced ischemia). ECGs confirmed the hallmark ischemic ST segment elevation during coronary occlusion (AD Instruments, Colorado Springs, CO, USA). Each group included 5 independent experiments. At the conclusion of the study, mice were euthanized by IP injection of 270 mg/kg pentobarbital. GsMTx4-D pretreatment: To evaluate the effect of GsMTx4-D pretreatment, GsMTx4-D (50 mg/kg) or vehicle (saline 50 μL) were administered via IP injection once daily for 2 days prior to surgery. Ischemia was then elicited with the same 20 min coronary occlusion followed by 24 h reperfusion. Following reperfusion, the chest was closed in layers. A drop of lidocaine was put on the suture site and the mouse was slowly weaned off the ventilator when they resumed spontaneous breathing. The mouse was returned to its cage and kept warm and medicated for pain (buprenorphine). Each group included 5 independent experiments.
To measure infarct size, hearts were harvested and excised for dual staining at the conclusion of reperfusion. The non-necrotic tissue in the ischemic region was stained red with 2,3,5- triphenyltetrazolium (TTC) and non-ischemic regions were stained blue with Evans blue. The hearts were fixed and sectioned into 1 mm slices, photographed with a Lexica MZ95 microscope and analyzed with NIH ImageJ software (http://imagej.nih.gov/ij/) 19. The infarct size was calculated as the ratio of the percentage of myocardial necrosis to the ischemic Area At Risk (AAR).
To test whether GsMTx4-D protected the heart against reperfusion injury, we first tested three different doses of the peptide. The positive control was verapamil, a voltage-gated calcium channel inhibitor with established cardioprotective effects on IRI. C57B1/6 mice were subjected to 20 min occlusion of the LAD followed by 4 hours of reperfusion. Three different concentrations of GsMTx4-D (0.1, 1 and 10 mg/kg), verapamil (0.4 mg/kg), or vehicle (saline) were administered through tail vein injection 5 min before reperfusion. […] At the conclusion of reperfusion, the hearts were stained with TTC and Evans Blue (FIG. 2A). […] The verapamil group also had lower infarction size (14.0±0.4%), but the difference wasn't statistically significant. […] To evaluate whether pretreatment with GsMTx4-D could also protect the heart from I/R injury, GsMTx4-D (50 mg/kg) or vehicle (saline 50 μL) were administered daily via IP injection, for 2 days prior to I/R surgery. As before, ischemia was induced from 20 min LAD occlusion, but reperfusion was allowed to continue for 24 hrs. The chest was closed in layers, and animals were weaned off the ventilator when they resumed spontaneous breathing. […] The ratios of AAR to total myocardial area between the two groups were equal as determined by TTC and Evans Blue staining (FIG. 3A and B). […]

COc1ccc(CCN(C)CCCC(C#N)(c2ccc(OC)c(OC)c2)C(C)C)cc1OC (centres unmarked) [verapamil, reference compound]
total incidence of arrhythmias (ventricular and supraventricular premature beats) [1]: 5.7±1.2 incidence/15 min reperfusion | infarction size (infarct area / AAR) [2]: 14.0±0.4%

Reference: patent US20170072012A1, “USE OF GSMTX4 TO REDUCE ISCHEMIA REPERFUSION INJURY” (priority 2014, published 2017)
